# Experimental data published in the supplement of paper PMC10307832.
# Key:
# Test in all cases: relative viability (nuclei count vs DMSO), 5 days (fraction); higher = more cells survive
# [1] = compound: CCn1c(-c2nonc2N)nc2c(C#CC(C)(C)O)ncc(OC[C@H]3CCCNC3)c21 + CC(=O)Nc1cccc(-n2c(=O)n(C3CC3)c(=O)c3c(Nc4ccc(I)cc4F)n(C)c(=O)c(C)c32)c1 [Trametinib] (partner 0.02 µM)
# How it was run: (§1)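 Lung cancer cell lines in 1536-well plates got either a single drug or a fixed anchor-drug dose together with five library-drug doses (not always all listed) in √10 steps, by pin tool, on the day after seeding. Nuclei were counted after 5 days, and relative viability is the treated-to-vehicle ratio of nuclei counts. Values are medians of duplicate plates.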
# [2] = compound: CCn1c(-c2nonc2N)nc2c(C#CC(C)(C)O)ncc(OC[C@H]3CCCNC3)c21 + CS(=O)(=O)N1CCN(Cc2cc3nc(-c4cccc5[nH]ncc45)nc(N4CCOCC4)c3s2)CC1 [Pictilisib] (partner 1 µM)
# How it was run: as §1
# BAM7 + Dasatinib = compound: CCOC1=CC=CC=C1N=NC2=C(NN(C2=O)C3=NC(=CS3)C4=CC=CC=C4)C [BAM7] + Cc1nc(Nc2ncc(C(=O)Nc3c(C)cccc3Cl)s2)cc(N2CCN(CCO)CC2)n1 [Dasatinib] (partner 0.075 µM)
# How it was run: as §1
# [3] = compound: CCn1c(-c2nonc2N)nc2c(C#CC(C)(C)O)ncc(OC[C@H]3CCCNC3)c21 + COc1cc2c(Oc3ccc(NC(=O)C4(C(=O)Nc5ccc(F)cc5)CC4)cc3F)ccnc2cc1OCCCN1CCOCC1 [Foretinib] (partner 0.25 µM)
# How it was run: as §1
Cell Line,relative viability ([1]; first compound 0.01 µM),relative viability ([1]; first compound 0.03162 µM),relative viability ([1]; first compound 0.1 µM),relative viability ([1]; first compound 0.3162 µM),relative viability ([1]; first compound 1 µM),relative viability ([2]; first compound 0.01 µM),relative viability ([2]; first compound 0.03162 µM),relative viability ([2]; first compound 0.1 µM),relative viability ([2]; first compound 0.3162 µM),relative viability ([2]; first compound 1 µM),relative viability (BAM7 + Dasatinib; first compound 0.5 µM),relative viability (BAM7 + Dasatinib; first compound 5 µM),relative viability (BAM7 + Dasatinib; first compound 15.81 µM),relative viability (BAM7 + Dasatinib; first compound 50 µM),relative viability ([3]; first compound 0.01 µM),relative viability ([3]; first compound 0.03162 µM),relative viability ([3]; first compound 0.1 µM),relative viability ([3]; first compound 0.3162 µM),relative viability ([3]; first compound 1 µM)
HCC-44,1.03,0.98,1.09,1.07,1.05,0.613,0.562,0.477,0.679,0.556,,,,,,,,,
HCC-827,0.532,0.5,0.546,0.504,0.462,1.18,0.966,0.865,0.916,1.19,0.29,0.234,0.313,0.264,1.02,1.09,1.01,1.06,1.02
NCI-H1623,,,,,,,,,,,0.576,0.56,0.573,0.641,0.855,0.849,0.793,0.882,0.676
NCI-H2347,0.251,0.314,0.242,0.263,0.332,0.456,0.675,0.0164,0.858,0.472,0.303,0.345,,0.339,0.836,0.841,,0.798,0.676
PC-14,0.716,0.772,0.613,0.446,0.444,0.633,0.754,0.75,0.72,0.564,0.229,0.211,0.228,0.295,0.933,1.02,1.02,0.894,1
NCI-H1651,0.83,0.82,0.811,0.783,0.841,0.551,0.564,0.607,0.523,0.639,0.297,0.372,0.477,0.456,0.865,0.807,0.743,0.521,0.779
HARA,0.542,0.852,0.947,0.652,0.611,0.474,0.359,0.376,0.458,0.419,0.293,0.403,0.291,0.328,0.848,1.01,0.864,0.833,0.876
NCI-H1650,0.548,0.582,0.559,0.51,0.551,0.531,0.602,0.441,0.586,0.562,0.338,0.278,0.277,0.337,1.07,1.01,1.3,0.933,1.02
NCI-H1395,0.947,0.864,0.935,0.705,0.818,0.665,0.536,0.561,0.553,0.57,0.41,0.445,0.357,0.465,0.945,0.922,0.945,0.871,0.818
LU99A,0.517,0.611,0.6,0.524,0.525,0.33,0.353,0.294,0.293,0.324,0.661,0.642,0.577,0.476,0.797,0.797,0.814,0.776,0.899
NCI-H1355,0.464,0.415,0.463,0.386,0.382,0.534,0.361,0.384,0.392,0.472,0.572,0.61,0.46,0.549,0.954,1.05,0.937,0.906,0.81
HCC-78,0.639,0.709,0.703,0.69,0.652,0.191,0.217,0.194,0.187,0.177,0.502,0.276,0.424,0.306,0.515,0.523,0.539,0.532,0.527
NCI-H1563,,,,,,0.689,0.618,0.686,0.615,0.633,0.438,0.497,0.484,0.41,0.989,0.884,0.886,0.892,0.881
HCC-15,0.358,0.352,0.385,0.39,0.354,0.689,0.724,0.685,0.738,0.743,0.594,0.574,0.617,0.565,0.995,1.04,1.05,0.903,0.92
EKVX,0.394,0.385,0.347,0.377,0.34,0.466,0.468,0.425,0.411,0.463,0.604,0.586,0.31,0.41,0.85,0.809,0.723,0.797,0.75
NCI-H2087,0.23,,0.175,0.223,0.174,0.823,0.843,0.805,0.891,0.894,0.939,0.991,0.765,0.844,0.927,1.06,1.15,0.981,1.03
LK-2,0.574,0.878,0.525,0.686,0.869,0.509,0.577,0.503,0.589,0.729,0.242,0.299,0.255,0.447,0.994,1.15,,,1.09
NCI-H1437,0.483,0.508,0.612,0.515,0.535,0.445,0.522,0.432,0.406,0.378,0.561,0.574,0.445,0.833,1.18,1.27,1.28,1.27,1.36
